Reference: patent publication US20140294921A1, “COMPOSITION FOR TIPICAL USE FOR TREATING SKIN DISORDERS” (SIGMA-TAU INDUSTRIE FAMACEUTICHE RIUNITE S.P.A., priority 2010, published 2014)

tested on: dithranol-induced mouse ear inflammation (edema); experiment: Dithranol-induced mouse ear inflammation test; type: in vivo; conditions: Swiss male mice, 10 per group; 20 μL solution painted on left ear at Time 0 and +16 h; dithranol 30 μg in 20 μL acetone at +0.5 h; 6 mm ear disks weighed at +24 h
Protocol: Dithranol is a known inflammatory agent, which induces inflammatory response by releasing free radicals.
The modulatory effects of the compositions of the present invention were tested using the dithranol-induced mouse ear inflammation test described in “Methods in Molecular Biology, 2003, Vol 225; 129-137”, and in “Br. J. Pharmacol. 1991, 104; 990-994”.
Swiss male mice (10 per group) of 6 to 8 weeks old; weighing 28-32 g each; were used. Mice had free access to food and water.
The compounds of the invention were dissolved in water or ethanol (depending on their solubility). 20 μL of the solution containing the compound of the invention, or their combinations, was painted on the left ear (back and front; 10+10 μL) using a Hamilton syringe within 30 seconds (Time 0) The compound tested, and their combinations, are reported in the following
A similar volume of vehicle (water or ethanol) was applied to the other ear (control ear).
After 30 minutes (Time+0.5 h) the irritant, dithranol, 30 μg in 20 μL of acetone was painted on the left ear (back and front, 10+10 μL).
A similar volume of acetone was applied to the other ear.
A group of mice treated only with dithranol (no treatment with the compounds of the invention) was present (control group).
An electric hair dryer for a few seconds to evaporate the solvent was used.
The compounds of the invention were administered again 16 hours from the first treatment (Time+16 h).
After 24 hours from the first treatment (Time+24 h) the animals were killed with an overdose of diethyl ether and the ears were cut off.
A disk from the middle part of each ear was cut off, using a sharp punch 6 mm in diameter.
The disks samples were weighted on a suitable balance, and the extent of the edema (as percentage of inhibition) was calculated according to the formula reported on page 991, right column, of “Br. J. Pharmacol. 1991, 104; 990-994” mentioned above.

Row | Compound | % Inhibit. (extent of the edema as percentage of inhibition) [%]
1 | O=C(O)CCCC[C@@H]1SC[C@@H]2NC(=O)N[C@@H]21 [Biotin] | 6
2 | CC(C)=CCC[C@](C)(O)C1CC=C(C)CC1 (stereo partly drawn) [Bisabolol] | 6
3 | C[N+](C)(C)C[C@H](O)CC(=O)[O-] [L-carnitine] | 9
4 | CC(C)(CO)[C@@H](O)C(=O)NCCCO [Panthenol] | 7
5 | Vitamin B12 | 8
6 | Vitamin E | 8
